Reference: the Deep4Chem optical property database
Blank lines part the entries; values can stand above or below the compound they belong to.

Experiment: solvent given as SMILES

absorption maximum (in C1CCOC1): 417 nm
SMILES: Cc1cc(C)c([B-]2(c3c(C)cc(C)cc3C)[O+]=P(c3ccccc3)(c3ccccc3)c3cc(C#Cc4ccccc4)sc3-c3sc(C#Cc4ccccc4)cc32)c(C)c1

absorption maximum (in C1CCOC1): 387.5 nm | absorption maximum (in CC#N): 388 nm | absorption maximum (in CCO): 391 nm | absorption maximum (in CN(C)C=O): 391.5 nm | absorption maximum (in CO): 391.5 nm | absorption maximum (in CS(C)=O): 393.5 nm
SMILES: CCOC(=O)c1sc(SC)c2c(=O)n(C)nnc12

absorption maximum (in CCCCCC): 450 nm | absorption maximum (in CO): 466 nm
SMILES: O=C1C=C(Nc2ccccc2)C(=O)c2ccccc21

SMILES: c1ccc(-c2nc(-c3ccccc3)nc(-c3cc(-n4c5ccccc5c5ncccc54)c(-n4c5ccccc5c5ccccc54)c(-n4c5ccccc5c5ncccc54)c3)n2)cc1
absorption maximum (in Cc1ccccc1): 376.56 nm

absorption maximum (in C1CCOC1): 398 nm | absorption maximum (in CC#N): 394 nm | absorption maximum (in CCCCCCC): 392 nm | absorption maximum (in CS(C)=O): 401 nm | absorption maximum (in ClCCl): 400 nm
SMILES: C(=C\c1ccncn1)/c1ccc(N(c2ccccc2)c2ccccc2)cc1

SMILES: c1ccc(-c2nc(-c3ccccc3)nc(-c3ccc(-n4c5ccccc5c5cc6c(cc54)c4ccccc4n6-c4ccccc4)cc3)n2)cc1
absorption maximum (in Cc1ccccc1): 403 nm

absorption maximum (in CO): 444 nm
SMILES: COc1ccc(/C=C/c2cc[n+]3ccc(/C=C/c4ccc(OC)cc4)cc3c2)cc1

absorption maximum (in CCO): 422 nm | absorption maximum (in ClCCl): 428 nm
SMILES: CCN(CC)c1ccc2cc(C#N)/c(=N\C(=O)C(C)C)oc2c1

SMILES: c1ccc(-c2nc(-c3ccccc3)nc(-c3ccc(-n4c5ccccc5c5c6c(ccc54)C4(c5ccccc5-c5ccccc54)c4ccccc4-6)cc3)n2)cc1
absorption maximum (in Cc1ccccc1): 374 nm

absorption maximum (in ClC(Cl)Cl): 374 nm
SMILES: CCCCCCN1C(=O)c2cccc3c(-c4ccc(Cl)s4)ccc(c23)C1=O

absorption maximum (in ClCCl): 718 nm
SMILES: COc1ccc2cc(C3=[N+]4C(=Nc5c(-c6ccc7ccccc7c6)cc(-c6ccc7cc(OC)ccc7c6)n5[B-]4(F)F)C(c4ccc5ccccc5c4)=C3)ccc2c1

absorption maximum (in CCO): 364 nm
SMILES: CN(C)c1cc2c(cc1F)c(=O)c1cc(F)c(N3CCCCC3)cc1n2C

absorption maximum (in ClCCl): 307 nm
SMILES: C[Si](c1ccc(-c2nc3ccccc3n2-c2ccccc2)cc1)(c1ccc(-c2nc3ccccc3n2-c2ccccc2)cc1)c1ccc(-c2nc3ccccc3n2-c2ccccc2)cc1

absorption maximum (in ClCCl): 361 nm
SMILES: CCOC(=O)c1c(-c2cc3c(ccc4ccccc43)oc2=O)nn(-c2cccc(C)c2)c1C(=O)OCC

absorption maximum (in O): 346 nm
SMILES: O=S(=O)([O-])c1cccc2c([O-])cccc12

absorption maximum (in C1CCOC1): 431 nm
SMILES: CCCCCCc1cc2c(s1)-c1sc(CCCCCC)cc1P(c1ccccc1)(c1ccccc1)=[O+][B-]2(c1c(C)cc(C)cc1C)c1c(C)cc(C)cc1C

absorption maximum (in C1CCOC1): 353 nm | absorption maximum (in CC#N): 353 nm | absorption maximum (in CCCCCC): 352 nm
SMILES: COCCN1C(=O)/C(=C/c2cccc(N(C)C)c2)N=C1C

absorption maximum (in CCO): 389 nm | absorption maximum (in ClCCl): 389 nm
SMILES: c1cnc(-c2c3ccccc3c(-c3ncccn3)c3ccccc23)nc1

absorption maximum (in CCCCCC): 428 nm | absorption maximum (in CO): 439 nm
SMILES: O=C1C=C(Nc2cccc(F)c2F)C(=O)c2ccccc21

SMILES: CCCCC1=Cc2c3ccc4cccc5ccc(c6cc(-c7ccc(N(c8ccccc8)c8ccccc8)cc7)n(c26)P1(=O)c1ccccc1)c3c45 (stereo not given)
absorption maximum (in C1CCCCC1): 431 nm | absorption maximum (in C1CCOC1): 432 nm | absorption maximum (in C1COCCO1): 432 nm | absorption maximum (in CC#N): 428 nm | absorption maximum (in CC(C)=O): 429 nm | absorption maximum (in CO): 428 nm | absorption maximum (in Cc1ccccc1): 434 nm | absorption maximum (in ClC(Cl)Cl): 433 nm | absorption maximum (in ClCCl): 431 nm

absorption maximum (in CC(C)(C)O): 349 nm | absorption maximum (in CC(C)CO): 349 nm | absorption maximum (in CC(C)O): 349 nm | absorption maximum (in CCCCO): 348 nm | absorption maximum (in CCCO): 348 nm | absorption maximum (in CCO): 348 nm | absorption maximum (in CN(C)C=O): 349 nm | absorption maximum (in CNC=O): 349 nm | absorption maximum (in CO): 348 nm | absorption maximum (in NC=O): 352 nm | absorption maximum (in O): 350 nm
SMILES: COCCOCCOCCOc1ccc(OCCOCCOCCOC)c(C=O)c1

absorption maximum (in CO): 380 nm | absorption maximum (in ClCCl): 387 nm
SMILES: CCCCCCN(CCCCCC)c1ccc(C#Cc2ccc(N(CCCCCC)CCCCCC)cc2)cc1

absorption maximum (in CCO): 430 nm | absorption maximum (in ClCCl): 436 nm
SMILES: CCN(CC)c1ccc2cc(C#N)/c(=N\C(=O)c3ccc(C)cc3)oc2c1

absorption maximum (in ClCCl): 353 nm
SMILES: COc1ccc(-c2nnc(-c3cc(-n4c5ccccc5c5ccccc54)c(-n4c5ccccc5c5ccccc54)cc3-c3nnc(-c4ccc(OC)cc4)o3)o2)cc1

absorption maximum (in C1CCOC1): 295 nm
SMILES: Cc1ccc(-c2ccc(-c3ccc(-c4ccc(C)cc4)cc3/C(=C(/c3ccccc3)c3cc(-c4ccc(C)cc4)ccc3-c3ccc(-c4ccc(C)cc4)cc3)c3ccccc3)cc2)cc1

SMILES: CCC1(CC)c2ccccc2-c2ccc(C#Cc3cc(C#Cc4ccc5c(c4)C(CC)(CC)c4ccccc4-5)c4ccc5c(C#Cc6ccc7c(c6)C(CC)(CC)c6ccccc6-7)cc(C#Cc6ccc7c(c6)C(CC)(CC)c6ccccc6-7)c6ccc3c4c65)cc21
absorption maximum (in Cc1ccccc1): 488 nm

absorption maximum (in C1CCOC1): 495 nm
SMILES: C[Si](C)(C)c1ccc(-c2ccc(-c3ccc(-c4ccc(-c5ccc([Si](C)(C)C)cc5)s4)c4nsnc34)s2)cc1

SMILES: CCN1C(=O)C(C2C(=O)c3c4ccccc4cc4cc5ccccc5c2c34)C(=O)N(CC)C1=S (stereo not given)
absorption maximum (in ClCCl): 532.11 nm

absorption maximum (in CC#N): 360 nm | absorption maximum (in CCCCCCCCCCCCCCCC): 350 nm | absorption maximum (in CO): 367 nm | absorption maximum (in ClC(Cl)Cl): 357 nm | absorption maximum (in c1ccccc1): 355 nm
SMILES: CC(C)(C)C1Nc2c(Cl)cc(Cl)cc2C(=O)N1Cc1ccccc1 (stereo not given)

absorption maximum (in O): 349 nm
SMILES: Cc1ccc(N(CC(=O)[O-])CC(=O)[O-])cc1OCCOc1cc(-c2cc3ccc(C(=O)[O-])cc3[nH]2)ccc1N(CC(=O)[O-])CC(=O)[O-]

absorption maximum (in C1CCCCC1): 320 nm | absorption maximum (in CO): 320 nm
SMILES: C/C(=C\c1ccc(Cl)cc1)c1nc2ccccc2s1

absorption maximum (in ClCCl): 518 nm
SMILES: Clc1nnc(O/N=C/c2ccc(N(c3ccccc3)c3ccccc3)cc2)nn1

SMILES: CCCCN1C(=S)c2cccc3cccc(c23)C1=S
absorption maximum (in CC#N): 437 nm | absorption maximum (in CS(C)=O): 443 nm | absorption maximum (in Cc1ccccc1): 442 nm

absorption maximum (in C1CCOC1): 505 nm
SMILES: c1cc2c3c4c5c(cccc5cc3c1)-c1cccn1B4n1cccc1-2

absorption maximum (in ClC(Cl)Cl): 333 nm
SMILES: CCCCn1c2ccccc2c2ccc3c4cc(-c5ccc(OC)cc5)ccc4n(CCCC)c3c21

absorption maximum (in CCO): 389 nm
SMILES: CCN(CC)c1cc2oc3cc(N(CC)CC)c(F)cc3c(=O)c2cc1F

SMILES: CC(=O)c1ccc(/N=N/c2ccc(Nc3ccccc3)cc2)cc1
absorption maximum (in C1CCOC1): 438 nm | absorption maximum (in CC#N): 432 nm | absorption maximum (in CC(=O)O): 544 nm | absorption maximum (in CN(C)C=O): 452 nm | absorption maximum (in CO): 443 nm | absorption maximum (in CS(C)=O): 459 nm | absorption maximum (in Cc1ccccc1): 429 nm | absorption maximum (in ClC(Cl)Cl): 427 nm | absorption maximum (in ClCCl): 432 nm

SMILES: CCCCCCC(CCCCCC)N1C(=O)c2cccc3c(-c4ccc([Si](C)(C)C)cc4)ccc(c23)C1=O
absorption maximum (in CCCCCC): 343.4 nm | absorption maximum (in CCCCCCCCCCCCCC): 344.4 nm | absorption maximum (in CCCCCCCCCCCO): 355 nm | absorption maximum (in CCCCO): 357.6 nm | absorption maximum (in CN(C)C=O): 356 nm | absorption maximum (in Cc1ccccc1): 353.4 nm | absorption maximum (in ClC(Cl)Cl): 356 nm

absorption maximum (in CN(C)C=O): 523 nm
SMILES: NCCCCCCCCCCCCN1C(=O)c2ccc3c4ccc5c6c(ccc(c7ccc(c2c37)C1=O)c64)C(=O)N(CCCCCCCCCCCCN)C5=O

absorption maximum (in C1CCOC1): 376 nm | absorption maximum (in CC#N): 377 nm | absorption maximum (in CCCCCCC): 373 nm | absorption maximum (in CS(C)=O): 383 nm | absorption maximum (in ClCCl): 381 nm
SMILES: CSc1ccc(/C=C/c2cnc3ccccc3n2)cc1

absorption maximum (in C1CCCCC1): 402 nm | absorption maximum (in CC#N): 409 nm
SMILES: CN(C)c1ccc(/C=C/c2nc3c(ccc4ccccc43)s2)cc1

absorption maximum (in C1CCOC1): 333 nm
SMILES: C(=C(c1ccccc1)c1ccccc1)c1ccc(-c2cc(-c3ccc(C=C(c4ccccc4)c4ccccc4)cc3)cc(-c3ccc(C=C(c4ccccc4)c4ccccc4)cc3)c2)cc1

SMILES: COCCC1=Cc2nc1ccc1[nH]c(cc1CCOC)c1nc(c(NC(=O)CCCC(=O)OC)cc3[nH]c2cc3CCOC)C(CCOC)=C1
absorption maximum (in Cc1ccccc1): 670 nm

absorption maximum (in ClCCl): 354 nm
SMILES: CC(C)(C)c1ccc2c(c1)c1cc(C(C)(C)C)ccc1n2-c1ccc(C#Cc2ccc(C=O)cc2)cc1

absorption maximum (in C1CCOC1): 356 nm | absorption maximum (in ClC(Cl)Cl): 360 nm | absorption maximum (in ClCCl): 356 nm
SMILES: COc1ccc2cc(C#Cc3ccc([N+](=O)[O-])cc3)ccc2c1

SMILES: N#Cc1c(-n2c3ccc(Br)cc3c3cc(Br)ccc32)c(C#N)c(-n2c3ccc(Br)cc3c3cc(Br)ccc32)c(-n2c3ccc(Br)cc3c3cc(Br)ccc32)c1-n1c2ccc(Br)cc2c2cc(Br)ccc21
absorption maximum (in Cc1ccccc1): 374 nm

absorption maximum (in ClCCl): 370 nm
SMILES: c1ccc(N(c2ccccc2)c2ccc(-c3nc(-c4ccc(N(c5ccccc5)c5ccccc5)cc4)c4ccccc4n3)cc2)cc1

absorption maximum (in C1CCCCC1): 361 nm | absorption maximum (in CC#N): 375 nm | absorption maximum (in CCOC(C)=O): 372 nm
SMILES: COc1c(-c2ccc(N(C)C)cc2)oc2ccccc2c1=O

absorption maximum (in C1COCCO1): 456 nm
SMILES: CC(=O)Nc1ccc(C2=C/C(=C\c3ccc(C#N)cc3)C(=O)N2)cc1

absorption maximum (in CCO): 421 nm | absorption maximum (in ClCCl): 428 nm | absorption maximum (in O): 443 nm
SMILES: N#CC(C#N)=Cc1ccc(-c2cccc(-c3nc4ccccc4s3)c2O)o1

SMILES: c1ccc(-c2ccc(-c3ccc(-n4c5ccccc5c5ccccc54)cc3)c3nsnc23)cc1
absorption maximum (in C1CCOC1): 394 nm | absorption maximum (in CC(C)=O): 382 nm | absorption maximum (in CCCCCC): 394 nm | absorption maximum (in CCOCC): 392 nm

absorption maximum (in ClCCl): 332 nm
SMILES: COc1cc(-c2cnc(-c3ccncc3)o2)cc(OC)c1OC

SMILES: CC(C)(C)c1ccc2c(c1)c1cc(C(C)(C)C)ccc1n2-c1cc(C(=O)c2ccncc2)cc(-n2c3ccc(C(C)(C)C)cc3c3cc(C(C)(C)C)ccc32)c1
absorption maximum (in Cc1ccccc1): 396 nm

absorption maximum (in CO): 418 nm
SMILES: CCCCCCc1cc(B(c2c(C)cc(C)cc2C)c2c(C)cc(C)cc2C)c(-c2sc(CCCCCC)cc2P(=O)(c2ccccc2)c2ccccc2)s1

absorption maximum (in O): 655 nm
SMILES: CCN1CCCc2cc3c(cc21)Oc1cc2c(cc1=N3)C(CS(=O)(=O)[O-])CC(C)(C)[N+]=2CCCC(=O)[O-] (stereo not given)
